Assay results taken from the NIST ThermoML archive (doi:10.1016/j.fluid.2005.12.017).
± gives the expanded uncertainty stated by the source.

Columns and labels:
[1] = for molar volume: 101.33 kPa, Pycnometric method; for Normal melting temperature: DTA
[2] = Molar enthalpy of transition or fusion; settings: Crystal; DSC

| Compound | molar volume ([1]; 338.15 K, Crystal) [m3/mol] | molar volume ([1]; 338.15 K, Liquid) [m3/mol] | Normal melting temperature ([1]; Crystal) [°C] | Molar enthalpy of transition or fusion [2] [kcal/mol] | molar volume ([1]; 323.15 K, Crystal) [m3/mol] | molar volume ([1]; 323.15 K, Liquid) [m3/mol] |
| --- | --- | --- | --- | --- | --- | --- |
| CCCCCCCCCCCCCCCC(=O)OCC(COC(=O)CCCCCCCCCCCCCCC)OC(=O)CCCCCCCCCCCCCCC [1,2,3-propanetriyl tri(hexadecanoate)] | 0.00087 ± 1e-05 | 0.00093 ± 1e-05 | 64.2 ± 0.5 | 28.9 ± 0.478 |  |  |
| COC1=C(OC)C(=O)C(C/C=C(\C)CC/C=C(\C)CC/C=C(\C)CC/C=C(\C)CC/C=C(\C)CC/C=C(\C)CC/C=C(\C)CC/C=C(\C)CC/C=C(\C)CCC=C(C)C)=C(C)C1=O [Coenzyme Q10] |  |  | 49.4 ± 0.5 | 19.6 ± 0.478 | 0.0009 ± 1e-05 | 0.00095 ± 1e-05 |
